From the supplement of paper PMC10307832

Legend:
Assay in all cases: relative viability (nuclei count vs DMSO), 5 days (fraction); higher = more cells survive
IPA-3 + Lapatinib = compound: C1=CC=C2C(=C1)C=CC(=C2SSC3=C(C=CC4=CC=CC=C43)O)O [IPA-3] + CS(=O)(=O)CCNCc1ccc(-c2ccc3ncnc(Nc4ccc(OCc5cccc(F)c5)c(Cl)c4)c3c2)o1 [Lapatinib] (partner 2 µM)
Summary of the method: (§1)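 Relative viability is defined as nuclei in treated wells over nuclei in vehicle wells. Duplicate plates were run and medians reported. Lung cancer cell lines in 1536-well plates were dosed by pin tool one day after seeding, with one drug or with a fixed anchor-drug dose plus five library-drug doses (not always all listed) in √10 steps, and nuclei were counted after 5 days.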

RAF265 + Crizotinib = compound: Cn1c(Nc2ccc(C(F)(F)F)cc2)nc2cc(Oc3ccnc(-c4ncc(C(F)(F)F)[nH]4)c3)ccc21 [RAF265] + C[C@@H](Oc1cc(-c2cnn(C3CCNCC3)c2)cnc1N)c1c(Cl)ccc(F)c1Cl [Crizotinib] (partner 1 µM)
Summary of the method: as §1

RAF265 + Palbociclib = compound: Cn1c(Nc2ccc(C(F)(F)F)cc2)nc2cc(Oc3ccnc(-c4ncc(C(F)(F)F)[nH]4)c3)ccc21 [RAF265] + CC(=O)c1c(C)c2cnc(Nc3ccc(N4CCNCC4)cn3)nc2n(C2CCCC2)c1=O [Palbociclib] (partner 0.5 µM)
Summary of the method: as §1

RAF265 + Trametinib = compound: Cn1c(Nc2ccc(C(F)(F)F)cc2)nc2cc(Oc3ccnc(-c4ncc(C(F)(F)F)[nH]4)c3)ccc21 [RAF265] + CC(=O)Nc1cccc(-n2c(=O)n(C3CC3)c(=O)c3c(Nc4ccc(I)cc4F)n(C)c(=O)c(C)c32)c1 [Trametinib] (partner 0.02 µM)
Summary of the method: as §1

Cell Line	relative viability (IPA-3 + Lapatinib; first compound 0.2 µM)	relative viability (IPA-3 + Lapatinib; first compound 0.6325 µM)	relative viability (IPA-3 + Lapatinib; first compound 2 µM)	relative viability (IPA-3 + Lapatinib; first compound 6.325 µM)	relative viability (IPA-3 + Lapatinib; first compound 20 µM)	relative viability (RAF265 + Crizotinib; first compound 0.01 µM)	relative viability (RAF265 + Crizotinib; first compound 0.03162 µM)	relative viability (RAF265 + Crizotinib; first compound 0.1 µM)	relative viability (RAF265 + Crizotinib; first compound 0.3162 µM)	relative viability (RAF265 + Crizotinib; first compound 1 µM)	relative viability (RAF265 + Palbociclib; first compound 0.01 µM)	relative viability (RAF265 + Palbociclib; first compound 0.03162 µM)	relative viability (RAF265 + Palbociclib; first compound 0.1 µM)	relative viability (RAF265 + Palbociclib; first compound 0.3162 µM)	relative viability (RAF265 + Palbociclib; first compound 1 µM)	relative viability (RAF265 + Trametinib; first compound 0.01 µM)	relative viability (RAF265 + Trametinib; first compound 0.03162 µM)	relative viability (RAF265 + Trametinib; first compound 0.1 µM)	relative viability (RAF265 + Trametinib; first compound 0.3162 µM)	relative viability (RAF265 + Trametinib; first compound 1 µM)
NCI-H2170	0.269	0.259	0.274	0.274	0.267	1.22	1.08	1.09	0.784	0.771	0.398	0.295	0.354	0.26	0.295	0.928	0.86	0.792	0.666	0.56
HCC-366	1.08	1.05	1.09	1.09	1.18	0.487	0.473	0.739	0.626	0.404	0.403	0.312	0.286	0.205	0.137	0.414	0.302	0.264	0.251	0.165
NCI-H2347	1.08	0.938	0.99	0.945	0.935	0.699	0.664	0.504	0.551	0.287	0.485	0.405	0.406	0.391	0.363	0.266	0.292	0.283	0.22	0.227
COR-L 105	0.384	0.374	0.359	0.325	0.304	0.844	0.689	0.755	0.503	0.297	0.425	0.36	0.385	0.371	0.358	0.47	0.428	0.429	0.38	0.348
201T	1.06	1.05	1.02	1.04	1.07	1.08	0.996	1.05	1.06	1.08	0.344	0.326	0.369	0.377	0.338	0.781	0.696	0.717	0.748	0.716
NCI-H2126	0.792	0.76	0.771	0.75	0.792	1.02	1.04	1.03	0.96	0.754	0.373	0.354	0.377	0.361	0.365	0.635	0.526	0.539	0.506	0.342
LC-2-ad	1.04	1	1.04	0.961	1.09	0.451	0.442	0.492	0.474	0.305	0.488	0.499	0.55	0.58	0.29	0.931	0.958	1.01	0.839	0.432
NCI-H2085	0.931	0.723	0.741	0.712	0.825	0.696	0.886	0.858	1.05	0.806	0.49	0.477	0.483	0.506	0.52	0.45	0.524	0.514	0.511	0.545
NCI-H358	0.532	0.47	0.445	0.51	0.413	0.618	0.597	0.5	0.395	0.23	0.129	0.117	0.116	0.129	0.124	0.152	0.115	0.116	0.127	0.129
H3255	0.213	0.277	0.184	0.2	0.23	0.928	0.83	1.12	–	0.671	0.323	0.316	0.321	–	0.331	0.719	0.585	0.657	0.271	0.458
NCI-H2228	1.87	1.39	1.24	0.825	1.18	0.382	0.369	0.333	0.356	0.321	0.721	0.73	0.818	0.333	0.284	0.651	0.58	0.423	0.201	0.247
CAL-12T	0.919	0.651	0.761	0.643	0.756	0.66	0.456	0.638	0.441	0.298	0.622	0.488	0.364	0.27	0.178	0.334	0.296	0.273	0.209	0.333
A-427	1.17	0.997	0.981	1.09	1.2	0.882	0.639	0.927	0.644	0.159	0.579	0.488	0.541	0.436	0.238	0.905	0.507	0.592	0.403	0.198
HARA	0.764	0.659	0.57	0.793	0.74	1.1	0.965	1.03	0.906	0.652	0.298	0.277	0.235	0.215	0.178	0.771	0.484	0.673	0.353	0.308
NCI-H1793	0.834	0.539	0.909	0.776	0.702	–	–	–	–	–	0.309	0.274	0.218	0.213	0.195	0.403	0.44	0.303	0.232	0.237
NCI-H2009	1.2	0.899	0.832	0.853	0.577	1.07	0.91	0.96	0.805	0.629	0.264	0.224	0.162	0.17	0.144	0.29	0.303	0.189	0.188	0.165
